Here are results for 7 molecules from US12325696B2, “Indazole derivative, preparation method therefor, and pharmaceutical application thereof” (JIANGSU HENGRUI MEDICINE CO., LTD., priority 2019, dated 2025).

pIC50: −log10 of the molar value. Where two headings read alike, the source gives them in different places.

In one data set the test system is MCF7 cell. Description: Inhibition of proliferation of MCF7 cell (CellTiter-Glo, 144 hours). In kind it is cell-based. The note with it: Homo sapiens; for pIC50: MCF7, CellTiter-Glo, read-out: IC50 of the inhibitory effect on the proliferation of MCF7 cell; for Emax: MCF7 cell proliferation, read-out: Maximum inhibition. An outline of the steps:
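Seeded overnight, MCF7 cells were treated in MEM with 2% FBS with nine 4-fold dilutions from 100 nM (0.5% DMSO blank). Incubation 144 h at 37° C, 5% CO2. CellTiter-Glo luminescence read; IC50 from signal versus log concentration.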
(ATP-based viability assays read luminescence as a measure of living cells.)

A short description of data set [1]: Pharmacokinetics in BALB/C nude mice after intragastric administration. In kind it is in vivo. As to conditions: female, mouse, plasma, po; for Vd/F: read-out: Apparent volume of distribution Vz/F; for AUC: read-out: Area under curve AUC; for CL/F: read-out: Clearance rate CL/F; for half-life: read-out: Half-life t1/2 (converted); for Cmax: read-out: Plasma concentration Cmax; for MRT: read-out: Residence time MRT. How it is done: BALB/C nude mice were used as test animals. The drug concentration in plasma at different time points was determined by LC/MS/MS method after intragastric administration of the compounds of the present disclosure to BALB/C nude mice. The pharmacokinetic behavior and characteristics of the compounds of the present disclosure was studied and evaluated in BALB/C nude mice.
Sixty-three BALB/C nude mice (female, equally divided into seven groups, nine mice per group) were purchased from Jiesijie Laboratory Animal Co., LTD. (Certificate No.: SCXK (Shanghai)2013-0006).
For the compound of Example 14, an appropriate amount of the compound was weighed, followed by the addition of 5% of DMSO, 5% of tween 80 and 90% of normal saline by volume to obtain a colorless, clear and transparent solution (0.1 mg/mL).
For the compounds of Examples 1, 15 and 39 to 42, an appropriate amount of the compound was weighed, followed by the addition of 9% of PEG400, 0.5% of tween 80 and 90.5% of 0.5% CMC-Na by volume to obtain a colorless, clear and transparent solution (1.5 mg/mL).
After an overnight fast, the test compounds were intragastrically administered at an administration volume of 0.2 ml/10 g respectively. The administration dose of the compound of Example 14 was 2 mg/kg, and the administration dose of the compounds of Examples 1, 15 and 39 to 42 was 30 mg/kg.
For the compounds of Examples 1 and 39, 0.1 ml of blood was taken at 0.25, 0.5, 1.0, 2.0, 4.0, 6.0, 8.0, 11.0 and 24.0 hours after the administration (from three animals per time point). The samples were stored in blood collection tubes treated with heparin (Sinopharm Chemical Reagent Co., Ltd.), and centrifuged for 10 minutes at 3500 rpm to separate the blood plasma. The blood plasma was stored at −20° C. The content of the test compound in the plasma of nude mouse after intragastrical administration of the test compound was determined. 25 μL of nude mouse plasma at each time point after the administration was taken, followed by the addition of 30 μL of the internal standard camptothecin solution (National Institutes for Food and Drug Control) (100 ng/mL) and 225 μL of acetonitrile. The resulting solution was vortex-mixed for 5 minutes, and centrifuged for 10 minutes (3700 to 4000 rpm). 0.1 to 0.5 μL of the supernatant was taken from the plasma samples for LC/MS/MS analysis.
For the compounds of Examples 14 and 15, 0.1 ml of blood was taken at 0.5, 1.0, 2.0, 4.0, 6.0, 8.0, 11.0 and 24.0 hours after the administration (from three animals per time point). The samples were stored in heparinized tubes, and centrifuged for 10 minutes at 3500 rpm to separate the blood plasma. The blood plasma was stored at −20° C. The content of the test compound in the plasma of nude mouse after intragastrical administration of the test compound was determined. 25 μL of nude mouse plasma at each time point after the administration was taken, followed by the addition of 30 μL of the internal standard camptothecin solution (100 ng/mL) and 200 μL of acetonitrile. The resulting solution was vortex-mixed for 5 minutes, and centrifuged for 10 minutes (3700 rpm). 0.25 to 1 μL of the supernatant was taken from the plasma samples for LC/MS/MS analysis.
For the compounds of Examples 40 to 42, 0.1 ml of blood was taken at 0.25, 0.5, 1.0, 2.0, 4.0, 6.0, 8.0, 11.0 and 24.0 hours after the administration (from three animals per time point). The samples were stored in tubes anticoagulated with EDTA-K2 (Shanghai Titan Scientific Co., Ltd.), and centrifuged for 1 minute at 10000 rpm and 4° C. The blood plasma was separated within one hour, and stored at −20° C. The process from blood collection to centrifugation was operated under an ice bath condition. The content of the test compound in the plasma of nude mouse after intragastrical administration of the test compound was determined. […]

Data set [2] deals with estrogen receptor ERα wild-type (Homo sapiens (Human), UniProt P03372). Description: Covalent modification of ERα wild-type LBD by high-resolution mass spectrometry. In kind it is binding. The note with it: after 24 hours; 2 μM protein, 10 μM compound, 4° C.
Chain of estrogen receptor ERα wild-type (P03372 296-554): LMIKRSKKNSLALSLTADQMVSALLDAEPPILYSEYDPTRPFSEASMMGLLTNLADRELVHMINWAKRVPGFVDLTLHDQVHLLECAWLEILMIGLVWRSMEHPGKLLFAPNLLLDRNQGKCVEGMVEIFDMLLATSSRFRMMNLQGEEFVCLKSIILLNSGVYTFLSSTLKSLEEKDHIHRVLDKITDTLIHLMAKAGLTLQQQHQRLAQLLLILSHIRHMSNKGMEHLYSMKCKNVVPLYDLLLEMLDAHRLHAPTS

As a reminder, the AUC is the area under the concentration-time curve, a measure of exposure. The MRT is the average time that molecules of a dose stay in the body. Turning to `O=C(/C=C/CNC1(COc2ccc(/C(=C(/CC(F)(F)F)c3ccccc3)c3ccc4[nH]nc(F)c4c3)cn2)CC1)N1CCOCC1` [Example 1, (E)-1-Morpholino-4-((1-(((5-((Z)-4,4,4-trifluoro-1-(3-fluoro-1H-indazol-5-yl)-2-phenylbut-1-en-1-yl)pyridin-2-yl)oxy)methyl)cyclopropyl)amino)but-2-en-1-one], in the data set with MCF7 cell, the pIC50 was 9.30 and the Emax amounted to 100%. Besides, in data set [1] (30 mg/kg), the Vd/F is 8.76 L/kg, the AUC was 9850 ng·h/mL, the CL/F worked out at 50.8 mL/min/kg and the half-life was 1.99 h. Besides, in data set [1] (30 mg/kg), the Cmax came out at 4280 ng/mL and the mean residence time (MRT) amounted to 1.6 h. In data set [2], the “Covalent modification effect on the estrogen receptor ERα wild-type” value (“Covalent modification effect” below) is 97%.
As usually defined, the bioavailability is the share of a dose that reaches the circulation, judged against a reference dose that is usually intravenous. In the case of `CN(C)C(=O)/C=C/CN1CCC[C@@H](Oc2ccc(/C(=C(/CC(F)(F)F)c3ccccc3)c3ccc4[nH]nc(F)c4c3)cn2)C1` [Example 14, (E)-N,N-Dimethyl-4-((R)-3-((5-((Z)-4,4,4-trifluoro-1-(3-fluoro-1H-indazol-5-yl)-2-phenylbut-1-en-1-yl)pyridin-2-yl)oxy)piperidin-1-yl)but-2-enamide], in the data set on MCF7 cell, the pIC50 was 9.10 and the Emax worked out at 108%. Also, in data set [1] (2 mg/kg), the Vd/F is 14.2 L/kg, the AUC stood at 205 ng·h/mL, the CL/F was 163 mL/min/kg and the half-life was 1.01 h. Besides, in data set [1] (2 mg/kg), the Cmax amounted to 87 ng/mL and the MRT was 1.9 h. Moreover, the bioavailability in data set [1] (2 mg/kg, read-out: Bioavailability F) amounted to 24.8%. For the same molecule, in data set [2], the “Covalent modification effect” value is listed as 93%.
Consider `O=C(/C=C/CN1CCC[C@@H](Oc2ccc(/C(=C(/CC(F)(F)F)c3ccccc3)c3ccc4[nH]nc(F)c4c3)cn2)C1)N1CCCC1` [Example 15, (E)-1-(Pyrrolidin-1-yl)-4-((R)-3-((5-((Z)-4,4,4-trifluoro-1-(3-fluoro-1H-indazol-5-yl)-2-phenylbut-1-en-1-yl)pyridin-2-yl)oxy)piperidin-1-yl)but-2-en-1-one], for which, in the data set on MCF7 cell, the pIC50 was 9.70 and the Emax was determined as 107%. Moreover, in data set [1] (30 mg/kg), the Vd/F amounted to 5.87 L/kg, the AUC was determined as 6560 ng·h/mL, the CL/F is 76 mL/min/kg and the half-life was 0.89 h. Further, in data set [1] (30 mg/kg), the Cmax was 4570 ng/mL and the mean residence time MRT turned out to be 1.41 h. Besides, in data set [2], the “Covalent modification effect” value was 95%.
As to `CN(C)C(=O)/C=C/CNC1(COc2ccc(/C(=C(/CC(F)(F)F)c3ccccc3)c3ccc4[nH]nc(F)c4c3)cn2)CC1` [Example 39, (E)-N,N-Dimethyl-4-((1-(((5-((Z)-4,4,4-trifluoro-1-(3-fluoro-1H-indazol-5-yl)-2-phenylbut-1-en-1-yl)pyridin-2-yl)oxy)methyl)cyclopropyl)amino)but-2-enamide], in the data set on MCF7 cell, the pIC50 is 9.70 and the Emax is 113%. Moreover, in data set [1] (30 mg/kg), the Vd/F amounted to 2.47 L/kg, the AUC was found to be 16500 ng·h/mL, the CL/F turned out to be 30.3 mL/min/kg and the half-life was 0.94 h. Also, in data set [1] (30 mg/kg), the Cmax turned out to be 6600 ng/mL and the MRT turned out to be 1.57 h. Besides, the “Covalent modification effect” value in data set [2] was found to be 97%.
With `O=C(/C=C/CNC1(COc2ccc(/C(=C(/CC(F)(F)F)c3ccccc3)c3ccc4[nH]nc(F)c4c3)cn2)CC1)N1CC(O)C1` [Example 40, (E)-1-(3-Hydroxyazetidin-1-yl)-4-((1-(((5-((Z)-4,4,4-trifluoro-1-(3-fluoro-1H-indazol-5-yl)-2-phenylbut-1-en-1-yl)pyridin-2-yl)oxy)methyl)cyclopropyl)amino)but-2-en-1-one], in the data set on MCF7 cell, the pIC50 is 10.00 and the Emax is 115%. Besides, in data set [1] (30 mg/kg), the Vd/F worked out at 4.59 L/kg, the AUC is 11900 ng·h/mL, the CL/F is 42.1 mL/min/kg and the half-life was 1.26 h. Further, in data set [1] (30 mg/kg), the Cmax was 3560 ng/mL and the MRT was determined as 2.3 h. Further, the “Covalent modification effect” value in data set [2] is on record as 96%.
For `O=C(/C=C/CNC1(COc2ccc(/C(=C(/CC(F)(F)F)c3ccccc3)c3ccc4[nH]nc(F)c4c3)cn2)CC1)N1CC[C@H](O)C1` [Example 41, (E)-1-((S)-3-Hydroxypyrrolidin-1-yl)-4-((1-(((5-((Z)-4,4,4-trifluoro-1-(3-fluoro-1H-indazol-5-yl)-2-phenylbut-1-en-1-yl)pyridin-2-yl)oxy)methyl)cyclopropyl)amino)but-2-en-1-one], in the data set with MCF7 cell, the pIC50 was 10.00 and the Emax came to 115%. In addition, in data set [1] (30 mg/kg), the Vd/F stood at 14.4 L/kg, the AUC was found to be 5020 ng·h/mL, the CL/F turned out to be 99.6 mL/min/kg and the half-life is 1.67 h. In data set [1] (30 mg/kg), the Cmax amounted to 2890 ng/mL and the MRT came out at 2.26 h. For the same molecule, in data set [2], the “Covalent modification effect” value is reported as 93%.
On to `O=C(/C=C/CNC1(COc2ccc(/C(=C(/CC(F)(F)F)c3ccccc3)c3ccc4[nH]nc(F)c4c3)cn2)CC1)N1CCO[C@@H](CO)C1` [Example 42, (E)-1-((R)-2-(Hydroxymethyl)morpholino)-4-((1-(((5-((Z)-4,4,4-trifluoro-1-(3-fluoro-1H-indazol-5-yl)-2-phenylbut-1-en-1-yl)pyridin-2-yl)oxy)methyl)cyclopropyl)amino)but-2-en-1-one], for which, in the data set on MCF7 cell, the pIC50 was 10.52 and the Emax turned out to be 105%. In data set [1] (30 mg/kg), the Vd/F worked out at 11.5 L/kg, the area under the curve (AUC) is 4510 ng·h/mL, the CL/F was determined as 111 mL/min/kg and the half-life is 1.2 h. In data set [1] (30 mg/kg), the Cmax worked out at 2570 ng/mL and the mean residence time MRT is 1.56 h.
